Data from patent US20240240224A1, “FLUORESCENT D-TYPE AMINO ACID METABOLISM MARKER-BASED METHOD FOR DETECTING ANTIBACTERIAL DRUG SENSITIVITY TEST” (priority 2020, published 2024).
In brackets after ≈: the same amount, converted by molar mass.

Assays:
[1] = tested on: S. aureus ST398; assay: FDAA metabolic labeling susceptibility test (Cy5-DAA probe, flow cytometry); type: cell-based; settings: Staphylococcus aureus; S. aureus ST398; Cy5-DAA probe, 2 hours; read-out: MIC, FDAA
Procedure: (§1) Take the colony to be tested that has been cultured overnight on the plate and fully mix it in normal saline to make a uniform bacterial solution. Dilute it into Cation-Adjusted Mueller Hinton Broth (CAMHB) culture medium to make a bacterial solution with OD600=0.05. • 2. Add 45 μl antibiotic solutions of different concentrations to 96-well plates (see Table 1 for antibiotic concentration gradient settings). • 3. Add 50 μl of the bacterial solution prepared in step 1 to the 96-well plate and mix well. • 4. Add 5 μl of 10 mM Cy5-DAA probe (final concentration 0.15 mM, see FIG. 1 for its structure) into each well, mix well, and cultivate in dark for 2 hours. • 5. Add 200 μl After PBS solution is diluted, the fluorescence intensity of each sample is detected by flow cytometry. The flow detection results are shown in FIG. 4-5, showing the curve of the change of antibiotic concentration gradient and fluorescence intensity. The MIC (minimum inhibitory concentration) can be obtained by referring to this curve.

[2] = tested on: S. aureus ST59; assay: as above; type: cell-based; settings: Staphylococcus aureus; S. aureus ST59; Cy5-DAA probe, 2 hours; read-out: MIC, FDAA
Procedure: as §1

[3] = tested on: S. aureus ST5; assay: as above; type: cell-based; settings: Staphylococcus aureus; S. aureus ST5; Cy5-DAA probe, 2 hours; read-out: MIC, FDAA
Procedure: as §1

[4] = tested on: S. aureus ST5; assay: Vitek 2 drug sensitivity test; type: cell-based, Staphylococcus aureus; on Sensibility: key: S: Drug sensitive; R: Drug resistance
[5] = tested on: S. aureus ST59; assay: Vitek 2 drug sensitivity test; type: cell-based, Staphylococcus aureus; on Sensibility: key: S: Drug sensitive; R: Drug resistance
[6] = tested on: S. aureus ST398; assay: Vitek 2 drug sensitivity test; type: cell-based, Staphylococcus aureus; on Sensibility: key: S: Drug sensitive; R: Drug resistance
[7] = tested on: E. faecium Ef26; assay: BMD susceptibility test; type: cell-based, Enterococcus faecium; settings: unit assumed
[8] = tested on: E. faecium Ef26; assay: FaAST (FDAA metabolic labeling method); type: cell-based, Enterococcus faecium; settings: unit assumed
Procedure: as §1
(§2) Bacteria with antibiotic resistance are shown in bold in the following table.

[9] = tested on: E. faecalis ATCC29212; assay: BMD susceptibility test; type: cell-based, Enterococcus faecalis; settings: unit assumed
[10] = tested on: E. faecalis ATCC29212; assay: FaAST (FDAA metabolic labeling method); type: cell-based, Enterococcus faecalis; settings: unit assumed
Procedure: as §1, §2

[11] = tested on: E. faecalis ATCC29212; settings: cited from earlier work

SMILES: Cc1onc(-c2ccccc2)c1C(=O)N[C@@H]1C(=O)N2[C@@H]1SC(C)(C)[C@@H]2C(=O)O [OX, oxacillin]
- MIC [1]: 0.25 mg/L (≈ 0.623 µM)
- MIC [2]: 32 mg/L (≈ 79.7 µM)
- MIC [3]: ≥ 1020 mg/L
- Sensibility [4]: R
- MIC ([4]; Staphylococcus aureus): 256 mg/L (≈ 638 µM)
- Sensibility [5]: R
- MIC ([5]; Staphylococcus aureus): 16 mg/L (≈ 39.9 µM)
- Sensibility [6]: S
- MIC ([6]; Staphylococcus aureus): ≤ 0.25 mg/L

SMILES: CC1(C)S[C@@H]2[C@H](NC(=O)Cc3ccccc3)C(=O)N2[C@H]1C(=O)O [Penicillin G, penicillin G]
- BMD (MIC) [7]: 64 mg/L
- FaAST (MIC) [8]: 32 mg/L
- BMD (MIC) [9]: 2 mg/L
- FaAST (MIC) [10]: 4 mg/L
- CLSI QC range [11]: 1-4
